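Test compounds were applied to cells in 96-well plates for 48 hours at 5 doses. GI50 marks 50% less growth.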 Active and inactive are the calls of the source. Cut-off read from the data, not from the text of the source: active = GI50 up to about 1.1 µM and inactive = higher.
Columns and labels:
Test in all cases: inhibition of tumour cell growth, NCI panel, 48 h
[1] = tested on: A549
[2] = tested on: A498
[3] = tested on: MOLT-4
[4] = tested on: TK-10
[5] = tested on: HCT-15
[6] = tested on: COLO 205
[7] = tested on: KM12
[8] = tested on: NCI-H460
[9] = tested on: EKVX
[10] = tested on: OVCAR-3
[11] = tested on: RXF 393
[12] = tested on: SNB-75
[13] = tested on: HCT-116
[14] = tested on: CCRF-CEM
[15] = tested on: SK-MEL-28
[16] = tested on: LOX IMVI
[17] = tested on: SNB-78
[18] = tested on: HCC 2998
[19] = tested on: SK-OV-3
[20] = tested on: MDA-MB-435

SMILES | GI50 [1] | GI50 [2] | GI50 [3] | GI50 [4] | GI50 [5] | GI50 [6] | GI50 [7] | GI50 [8] | GI50 [9] | GI50 [10] | GI50 [11] | GI50 [12] | GI50 [13] | GI50 [14] | GI50 [15] | GI50 [16] | GI50 [17] | GI50 [18] | GI50 [19] | GI50 [20]
CNC(=O)OCc1nc(SSc2nc(COC(=O)NC)c(COC(=O)NC)n2C)n(C)c1COC(=O)NC | > 100 µM (inactive) | > 100 µM (inactive) | > 100 µM (inactive) | > 100 µM (inactive) | > 100000 nM | > 100 µM (inactive) | > 100 µM (inactive) | > 100 µM (inactive) | > 100 µM (inactive) | > 100 µM (inactive) | > 100 µM (inactive) | > 100 µM (inactive) | > 100 µM (inactive) | > 100 µM (inactive) | > 100 µM (inactive) | > 100 µM (inactive) | > 100 µM (inactive) | > 100 µM (inactive) | > 100 µM (inactive) | 
CCOC(=O)CSc1nnc(C(Sc2nc(-c3ccccc3)c(-c3ccccc3)[nH]2)C(C)C)n1-c1ccccc1 (configuration not stated) | 19.2 µM (inactive) | > 10 µM (inactive) | 17.1 µM (inactive) | 21.5 µM (inactive) | 18100 nM | 17 µM (inactive) | 17.7 µM (inactive) | 17.5 µM (inactive) | 21.2 µM (inactive) | > 10 µM (inactive) | 26.2 µM (inactive) | > 10 µM (inactive) | 14.5 µM (inactive) | 14.3 µM (inactive) | 18.2 µM (inactive) | 13.7 µM (inactive) | > 10 µM (inactive) | 19.2 µM (inactive) | > 10 µM (inactive) | 
CCN(CC)CCCC(C)Nc1c(Sc2cnc3cc(Cl)ccc3c2NC(C)CCCN(CC)CC)cnc2cc(Cl)ccc12 (configuration not stated) | 1.68 µM (inactive) | 1.85 µM (inactive) | 2.37 µM (inactive) | 1.79 µM (inactive) | 1720 nM | 1.46 µM (inactive) | 2.07 µM (inactive) | 1.74 µM (inactive) |  | 1.9 µM (inactive) | 1.67 µM (inactive) | 1.51 µM (inactive) | 1.37 µM (inactive) | 2.2 µM (inactive) | 1.86 µM (inactive) | 1.78 µM (inactive) | 2.73 µM (inactive) | 0.269 µM (active) | 1.66 µM (inactive) | 
CC1=CC=NN2C(=O)[C@H](C)C2C1 (some centres not stated) | > 100 µM (inactive) | > 100 µM (inactive) | > 100 µM (inactive) | > 100 µM (inactive) | > 100000 nM | > 100 µM (inactive) | > 100 µM (inactive) | > 100 µM (inactive) | > 100 µM (inactive) | > 100 µM (inactive) | > 100 µM (inactive) | > 100 µM (inactive) | > 100 µM (inactive) | > 100 µM (inactive) | > 100 µM (inactive) | > 100 µM (inactive) | > 100 µM (inactive) | > 100 µM (inactive) | > 100 µM (inactive) | 
Oc1cccc(-c2cc(O)c3cc4c(cc3n2)OCO4)c1 | 5.27 µM (inactive) | 41.8 µM (inactive) | 3.77 µM (inactive) | 13.2 µM (inactive) | 2740 nM | 2.68 µM (inactive) | 0.561 µM (active) | 17.8 µM (inactive) |  | 0.193 µM (active) | 1.67 µM (inactive) | 0.379 µM (active) | 1.43 µM (inactive) | 0.54 µM (active) | 2.81 µM (inactive) | 4.98 µM (inactive) | 1.03 µM (active) | 4.28 µM (inactive) | 1.41 µM (inactive) | 277 nM (active)
C/C(=N\NC(N)=S)c1ccc2c(c1)OCO2 | > 100 µM (inactive) | > 100 µM (inactive) | > 100 µM (inactive) | > 100 µM (inactive) | > 100000 nM | > 100 µM (inactive) | > 100 µM (inactive) | > 100 µM (inactive) | 13.9 µM (inactive) | > 100 µM (inactive) | > 100 µM (inactive) | > 100 µM (inactive) | > 100 µM (inactive) | 56.8 µM (inactive) | > 100 µM (inactive) | > 100 µM (inactive) | > 100 µM (inactive) | > 100 µM (inactive) | > 100 µM (inactive) | 
C[N+](C)(C)CCC(=O)N1C/C(=C\c2ccccc2)C(=O)/C(=C/c2ccccc2)C1 | 14.7 µM (inactive) | 20.7 µM (inactive) | 2.45 µM (inactive) | 14.4 µM (inactive) | 2470 nM | 3.47 µM (inactive) | 1.6 µM (inactive) | 7.87 µM (inactive) | 21.4 µM (inactive) | 3.82 µM (inactive) | 11.8 µM (inactive) | 7.83 µM (inactive) | 1.53 µM (inactive) | 1.64 µM (inactive) | 8.05 µM (inactive) | 1.7 µM (inactive) | 6.65 µM (inactive) | 3.47 µM (inactive) | 23.7 µM (inactive) | 2290 nM (inactive)
N#COc1ccc(Oc2ccccc2)cc1 | 73.3 µM (inactive) | > 100 µM (inactive) | 42.9 µM (inactive) | > 100 µM (inactive) | 57700 nM | 64 µM (inactive) | > 100 µM (inactive) | 43.2 µM (inactive) | > 100 µM (inactive) | > 100 µM (inactive) | > 100 µM (inactive) | 39.8 µM (inactive) | 61.7 µM (inactive) | 24.5 µM (inactive) | > 100 µM (inactive) | 23.1 µM (inactive) | 36.8 µM (inactive) | 55.5 µM (inactive) | > 100 µM (inactive) | 
Nc1cccc(-c2cc(O)c3cc4c(cc3n2)OCO4)c1 | 4.09 µM (inactive) | 2.45 µM (inactive) | 2.07 µM (inactive) | 6.64 µM (inactive) | 1230 nM | 0.384 µM (active) | 0.593 µM (active) | 4.28 µM (inactive) | 3.27 µM (inactive) | 0.188 µM (active) | 1.02 µM (active) | 0.0995 µM (active) | 0.389 µM (active) | 0.665 µM (active) | 2.19 µM (inactive) | 1.23 µM (inactive) | 0.834 µM (active) | 1.83 µM (inactive) | 1.28 µM (inactive) | 160 nM (active)

From ChEMBL document CHEMBL1201862, “PubChem BioAssay data set” (2004)
